Consider 64 molecules from publication PMC5607274, “An iterative compound screening contest method for identifying target protein inhibitors using the tyrosine-protein kinase Yes” (Scientific Reports, 2017).

The target in this experiment is T1, human recombinant Yes [a.a. 2–543 (end)] (Homo sapiens, UniProt P07947).
T1 construct: human recombinant Yes [a.a; 2–543 (end)]; purchased BPS Bioscience 40488
T1 sequence (P07947 2-543): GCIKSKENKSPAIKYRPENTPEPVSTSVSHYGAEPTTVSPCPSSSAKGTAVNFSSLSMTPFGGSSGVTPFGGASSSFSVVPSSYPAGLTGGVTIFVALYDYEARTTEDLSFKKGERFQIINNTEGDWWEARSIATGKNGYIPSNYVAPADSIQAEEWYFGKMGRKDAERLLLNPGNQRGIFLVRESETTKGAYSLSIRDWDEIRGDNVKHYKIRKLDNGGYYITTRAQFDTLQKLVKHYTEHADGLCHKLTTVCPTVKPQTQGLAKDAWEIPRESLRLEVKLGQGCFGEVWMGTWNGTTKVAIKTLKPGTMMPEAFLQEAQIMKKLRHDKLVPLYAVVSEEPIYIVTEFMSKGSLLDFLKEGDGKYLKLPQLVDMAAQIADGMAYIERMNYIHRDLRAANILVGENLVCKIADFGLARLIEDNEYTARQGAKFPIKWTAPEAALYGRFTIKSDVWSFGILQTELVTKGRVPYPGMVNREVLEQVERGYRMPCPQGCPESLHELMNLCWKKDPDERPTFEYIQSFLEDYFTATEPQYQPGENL
The experiment is described as follows: ADP-Glo kinase assay, inhibition rates of Yes phosphorylation activity (first and second screening). Format: biochemical. Conditions: first screening; mean of n = 4 wells; 10 μmol L−1 compound. Put shortly: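 Hits from a first pass were rescreened after re-dissolution from fresh powder. The first pass reported the mean inhibition rate of quadruplicate wells per compound. Activity was that of recombinant human Yes [a.a. 2–543] kinase, read out with the ADP-Glo ADP-detection method.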
On the technique in general: In ADP-Glo the light output rises with the ADP produced.
As to `COc1ccc(S(=O)(=O)N(C)Cc2ccc3c(c2)OCO3)cc1Br` [Compound Z74745150], the “First screening IR (inhibition rate)” value is on record as -25%. For `CCOC(=O)c1cnc(SCC(=O)OC/C(O)=C(\C#N)c2nc3ccccc3[nH]2)nc1N` [Compound Z76798588] the value was 5%; for `CC1CCc2c(sc3nc4c(c(-c5ccco5)c23)-c2ccccc2CC4)C1.Cl` (stereo not shown) [Compound Z76887050], 8%; for `Cc1cc(/C=C/C(=O)N2CCOCC2)c(C)n1-c1ccnn1C(C)C` [Compound Z79434439], 15%.

With `Cc1noc(C)c1CC(=O)NN=C(c1ccccc1)c1ccccc1` [Compound Z79575803], the “First screening IR (inhibition rate)” value was -9%. The result for `CCN(CC)CCNC(=O)c1ccc(NC(=O)C2CCN(c3ncnc4sc(C)c(C)c34)CC2)cc1` [Compound Z79604730] reads -1%; that for `Cc1ccc(-c2csc3ncn(CC(=O)N4CCN(CC(=O)NC(C)(C)C)CC4)c(=O)c23)cc1C` [Compound Z81619452], -8%; that for `NS(=O)(=O)c1ccc2nc(-c3ccc4c(c3)-c3ccccc3C4)cn2c1` [Compound Z82176567], 27%. The result for `CCCCOc1ccc(C(=O)NCC(=O)NCC(c2cccs2)N2CCOCC2)cc1` (stereo not shown) [Compound Z84671779] reads 6%. With `CCN1CCC(NC(=O)C2CCN(S(=O)(=O)c3c(C)c(C)cc(C)c3C)CC2)CC1` [Compound Z85145044], the “First screening IR (inhibition rate)” value was found to be 6%. For `CCCCN(S(C)(=O)=O)S(=O)(=O)c1ccc(OC)cc1` [Compound Z85927834] the value was 1%. On to `Cc1ccc(Nc2ncnc3sc4c(c23)CCCC4)c(O)c1` [Compound Z85929120], for which the “First screening IR (inhibition rate)” value was determined as 2%. For `O=C(COC(=O)c1ccco1)Nc1nc2ccc([N+](=O)[O-])cc2s1` [Compound Z85929771], the “First screening IR (inhibition rate)” value is given as 10%.

On to `COc1ccc(-c2cc3c4ccccc4oc4nc(=N)c(C#N)c([nH]2)c43)cc1` [Compound Z85934217], for which the “First screening IR (inhibition rate)” value worked out at 5%. The result for `O=C(Cn1c(CN2CCOCC2)nc2sc3c(c2c1=O)CCCC3)Nc1ccc(OCc2ccccc2)cc1` [Compound Z86108588] reads 16%. For `CC(NC(=O)Nc1ccc(F)cc1F)c1ccc(-n2cncn2)cc1` (stereo not shown) [Compound Z86212654] the value was -3%.

Take `CS(=O)(=O)c1ccc(Cl)c(S(C)(=O)=O)c1` [Compound Z87002147]: the “First screening IR (inhibition rate)” value amounted to 0%. The result for `O=C(Nc1nc(-c2ccccc2)cs1)c1cc2ccccc2s1` [Compound Z87524039] reads 20%; that for `O=C(NCC1(N2CCCCC2)CCCCC1)c1ccc(S(=O)(=O)NC2CC2)cc1` [Compound Z87649109], -3%.

In the case of `CC(NC(=O)c1ccc(-n2cnc3ccccc32)cc1)c1ccc(S(N)(=O)=O)cc1` (stereo not shown) [Compound Z87656555], the “First screening IR (inhibition rate)” value is recorded as -5%. The result for `O=C(NCC(c1ccccc1Cl)N1CCCC1)C1CCN(C(=O)c2cccs2)CC1` (stereo not shown) [Compound Z87671607] reads -35%; that for `N#Cc1ccccc1CSCCNC(=O)c1ccc2nc[nH]c2c1` [Compound Z88237436], -1%; that for `O=C(c1cccnc1N1CCCC1)N1CCN(C(=O)C2COc3ccccc3O2)CC1` (stereo not shown) [Compound Z88468962], -8%. Regarding `CC(NCc1ccc(C(=O)Nc2ccccc2)cc1)c1ccc2c(c1)OCCO2` (stereo not shown) [Compound Z89008298], the “First screening IR (inhibition rate)” value is on record as -38%. For `O=S(=O)(c1ccc(Br)cc1Cl)N1CCN(Cc2cn3ccccc3n2)CC1` [Compound Z89065969] the value was -1%; for `N#Cc1ccc(CN2CCN(Cc3c(-c4ccccc4)nc4sccn34)CC2)cc1` [Compound Z89137945], -31%; for `O=S(=O)(c1ccccc1Cl)N1CCN(Cc2cn3ccccc3n2)CC1` [Compound Z89155296], 15%. For `C=CCN(CC(=O)Nc1ccc(S(=O)(=O)N(CC)CC)cc1)Cc1cccs1` [Compound Z89203975] the value was 16%. For `COc1ccc(CN2CCN(Cc3c(-c4ccccc4)nc4ccccn34)CC2)cc1OC` [Compound Z89207636] the value was 45%; for `Cc1ccc(-c2c(C)sc3nc(CN4CCN(CC(=O)N5CCOCC5)CC4)[nH]c(=O)c23)cc1` [Compound Z89215884], 5%. For the molecule `COc1ccc(S(=O)(=O)N(C)C2CCS(=O)(=O)C2)cc1` (stereo not shown) [Compound Z89320750], the “First screening IR (inhibition rate)” value is given as 2%. The result for `Cc1ccc(S(=O)(=O)N(C)C2CCS(=O)(=O)C2)cc1C` (stereo not shown) [Compound Z89320796] reads 2%; that for `CN(C1CCS(=O)(=O)C1)S(=O)(=O)c1cc(Cl)cc(Cl)c1` (stereo not shown) [Compound Z89320874], 17%; that for `CCc1ccc(S(=O)(=O)N(C)C2CCS(=O)(=O)C2)cc1` (stereo not shown) [Compound Z89320983], 10%. For `CCN(C1CCS(=O)(=O)C1)S(=O)(=O)c1cc(Br)ccc1C` (stereo not shown) [Compound Z89358343] the value was 1%; for `CC1Cc2cc(C(=O)NC3(C)CCS(=O)(=O)C3)ccc2N1S(C)(=O)=O` (stereo not shown) [Compound Z89460412], 10%. The result for `Cc1oc(-n2cccc2)c(C#N)c1C(=O)Nc1cccc(/C=C/c2ccccn2)c1` [Compound Z89489183] reads 9%; that for `Cc1noc(C)c1COc1ccccc1C(=O)NCCSc1ccc(Cl)cc1` [Compound Z89513568], 17%.

With `O=C(/C=C/c1ccsc1)NC(c1ccccc1)c1cccs1` (stereo not shown) [Compound Z89582531], the “First screening IR (inhibition rate)” value came to 1%. Regarding `Cc1cc(/C=C/C(=O)N2CCN(C3CCS(=O)(=O)C3)CC2)c(C)n1-c1ccc2c(c1)OCO2` (stereo not shown) [Compound Z89622401], the “First screening IR (inhibition rate)” value was -12%. The result for `Cc1ccc(C(=O)OCc2nc(N)nc(Nc3ccccc3)n2)s1` [Compound Z89671452] reads -2%; that for `Cc1nn(Cc2ccccc2)c(Cl)c1C(=O)OCc1nc(N)nc(Nc2ccccc2)n1` [Compound Z89784395], 0%. The result for `Cc1ccc(Cn2nc(C)c(C(=O)OCc3nc(N)nc(Nc4ccccc4)n3)c2Cl)cc1` [Compound Z89857426] reads 22%; that for `c1csc(-c2noc(CSc3nnc(C4CC4)n3C3CC3)n2)c1` [Compound Z90118492], 4%; that for `CCn1ncc2c(C(=O)OC)cc(-c3ccccc3)nc21` [Compound Z90171664], 11%. For `CCn1ncc2c(C(=O)OC)cc(-c3cccs3)nc21` [Compound Z90171904] the value was 20%. Take `O=S(=O)(c1c(Cl)cccc1Cl)N1CCN(Cc2nc(-c3cccc(Cl)c3)no2)CC1` [Compound Z90231169]: the “First screening IR (inhibition rate)” value was -8%. The result for `O=S(=O)(c1ccccc1Cl)N1CCN(Cc2nc(-c3cccc(Cl)c3)no2)CC1` [Compound Z90240663] reads -3%; that for `COC(=O)c1cc(-c2ccc(F)cc2)nc2c1c(C)nn2C1CCS(=O)(=O)C1` (stereo not shown) [Compound Z90289702], -1%; that for `COC(=O)c1cc(-c2ccc(C)cc2)nc2c1cnn2C(C)C` [Compound Z90671680], 26%.

Regarding `Cn1c(CNS(=O)(=O)c2ccc(C(F)(F)F)cc2)nc2ccccc21` [Compound Z90694917], the “First screening IR (inhibition rate)” value was -18%. The result for `CCCn1c(C)cc(-c2csc(NC(=O)CCN3C(=O)COc4ccccc43)n2)c1C` [Compound Z90896104] reads -7%; that for `O=C(CCCC1CCCCC1)Nc1ccc(-c2cnc[nH]2)cc1` [Compound Z91026356], 0%; that for `CC(NC(=O)CCc1c[nH]c2ccccc12)c1cc2ccccc2o1` (stereo not shown) [Compound Z91037735], 1%. The result for `COC(=O)c1cc(-c2ccc(OC)c(OC)c2)nc2c1c(C)nn2C1CCS(=O)(=O)C1` (stereo not shown) [Compound Z91043666] reads 2%. For `COC(=O)c1cc(-c2ccccc2F)nc2c1cnn2C(C)C` [Compound Z91043804] the value was -6%. For the molecule `CC(C)C(NC(=O)c1ccc(S(=O)(=O)N(C)C)cc1)c1ccc2c(c1)OCCCO2` (stereo not shown) [Compound Z91218489], the “First screening IR (inhibition rate)” value was found to be 5%.

As to `Cc1ccccc1-n1c(SCC(=O)c2cc(C)n(CC3CCCO3)c2C)nnc1N1CCOCC1` (stereo not shown) [Compound Z92475228], the “First screening IR (inhibition rate)” value is listed as 14%. The result for `Cc1cccc(-n2c(SCC(=O)c3cc(C)n(CC4CCCO4)c3C)nnc2N2CCOCC2)c1` (stereo not shown) [Compound Z92479374] reads 3%. The result for `O=C(CSc1nnc(-c2cccnc2)n1C1CC1)Nc1nc(-c2ccc(F)cc2)cs1` [Compound Z92534919] reads 10%; that for `Cc1cc(NC(=O)Cn2nc(C)c(S(=O)(=O)N3CCCCC3)c2C)no1` [Compound Z92593810], -4%; that for `O=C(OCc1cccc(C(F)(F)F)c1)c1n[nH]c(=O)c2ccccc12` [Compound Z94561070], -11%. For `O=C1COc2ccc(C(=O)/C=C/c3ccc(OC(F)F)cc3)cc2N1` [Compound Z94572736] the value was 3%; for `Cc1nn(-c2ccccc2)c(Cl)c1CN1CCN(S(=O)(=O)c2ccccc2C(F)(F)F)CC1` [Compound Z94609806], 3%.
